Reference: patent publication US20030162777A1, “Novel N-acylated heterocycles” (Recordati S.A., priority 2001, published 2003)

Biological target: T1, human 5HT1A-serotonergic receptor (Homo sapiens, UniProt P08908)
T1 construct: expressed in transfected cells; host or cells: HeLa (human cell line), stably transfected; cell membranes used
T1 sequence (P08908 1-422): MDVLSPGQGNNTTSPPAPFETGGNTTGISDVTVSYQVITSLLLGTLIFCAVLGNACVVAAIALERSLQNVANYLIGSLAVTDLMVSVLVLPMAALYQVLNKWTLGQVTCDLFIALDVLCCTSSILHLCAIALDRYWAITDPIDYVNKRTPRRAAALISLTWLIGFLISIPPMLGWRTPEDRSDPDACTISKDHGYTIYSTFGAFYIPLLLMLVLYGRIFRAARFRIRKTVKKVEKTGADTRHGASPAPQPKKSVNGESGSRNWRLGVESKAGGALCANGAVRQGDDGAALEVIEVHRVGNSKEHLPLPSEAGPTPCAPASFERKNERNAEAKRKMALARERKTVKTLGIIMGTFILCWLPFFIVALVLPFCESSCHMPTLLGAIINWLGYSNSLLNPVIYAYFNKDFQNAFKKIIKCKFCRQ
Assay: Radioligand binding to recombinant 5-HT1A receptors
Conditions: [3H]8-OH-DPAT 1 nM, membranes of HeLa cells with human 5-HT1A receptor; Ki from IC50 by Cheng & Prusoff; read-out: Binding affinity for 5HT1A receptors, Ki
In short: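 Displacement of 1 nM [3H]8-OH-DPAT (30 min, 30 °C, Tris-HCl pH 7.4 with MgCl2 and pargyline) from recombinant human 5-HT1A in transfected HeLa membranes, stopped by filtration. Specific binding defined against 10 μM 5-HT; IC50 by nonlinear fitting, then Ki by Cheng–Prusoff.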

Compound | Ki
O=C(Cc1ccc(Cl)cc1)N1c2ccccc2CCC1CN1CCN(c2cccc3[nH]ccc23)CC1 (stereo not shown) [Example 68A30, 1-[1-[2-(4-Chlorophenyl)acetyl]-1,2,3,4-tetrahydroquinoline-2-ylmethyl]-4-(4-indolyl)piperazine] | 0.0238 µM
Cc1ccc(NC(=O)N2c3ccccc3CCC2CN2CCN(c3cccc4[nH]ccc34)CC2)cc1 (stereo not shown) [Example 69A3, 1-(4-Indolyl)-4-[1-(4-methylphenylaminocarbonyl)-1,2,3,4-tetrahydroquinoline-2-ylmethyl]piperazine] | 0.0093 µM
O=C(Nc1ccccc1)N1c2ccccc2CCC1CN1CCN(c2cccc3[nH]ccc23)CC1 (stereo not shown) [Example 31, 1-(4-Indolyl)-4-(1-phenylaminocarbonyl-1,2,3,4-tetrahydroquinoline-2-ylmethyl)piperazine] | 0.0128 µM
CN(CCOc1ccccc1Cl)CC1CCc2ccccc2N1C(=O)C1CCCCC1 (stereo not shown) [Example 72A84, N-(1-Cyclohexanecarbonyl-1,2,3,4-tetrahydroquinolin-2-ylmethyl)-2-(2-chlorophenoxy)ethylmethylamine] | 0.0157 µM
COc1ccc(C(=O)N2c3ccccc3CCC2CN(C)CCOc2ccccc2OC)cc1 (stereo not shown) [Example 77A5, N-[1-(4-Methoxybenzoyl)-1,2,3,4-tetrahydroquinolin-2-ylmethyl]-N-[2-(2-methoxyphenoxy)ethyl]methylamine] | 0.0131 µM
O=C(C1CCCCC1)N1c2ccc(F)cc2CCC1CN1CCN(c2ccccc2OCC(F)(F)F)CC1 (stereo not shown) [Example 5, 1-(1-Cyclohexanecarbonyl-6-fluoro-1,2,3,4-tetrahydroquinoline-2-ylmethyl)-4-[2-(2,2,2-trifluoroethoxy)phenyl]piperazine] | 0.0107 µM
O=C(N1CCCCC1)N1c2ccccc2CCC1CN1CCN(c2cccc3[nH]ccc23)CC1 (stereo not shown) [Example 36, 1-(4-Indolyl)-4-(1-piperidinocarbonyl-1,2,3,4-tetrahydroquinoline-2-ylmethyl)piperazine] | 0.0156 µM
COc1ccc(C(=O)N2c3cccc(Cl)c3CCC2CN2CCN(c3ccc(F)cc3OC)CC2)cc1 (stereo not shown) [Example 56, 1-[5-Chloro-1-(4-methoxybenzoyl)-1,2,3,4-tetrahydroquinoline-2-ylmethyl]-4-(4-fluoro-2-methoxyphenyl)piperazine] | 0.0036 µM
Cc1c(F)cccc1C1CCN(CC2CCc3ccccc3N2C(=O)C2CCCCC2)CC1 (stereo not shown) [Example 72A57, 1-(1-Cyclohexanecarbonyl-1,2,3,4-tetrahydroquinolin-2-ylmethyl)-4-(3-fluoro-2-methylphenyl)piperidine] | 0.0064 µM
O=C(C1CCCCC1)N1c2c(F)cccc2CCC1CN1CCN(c2cccc3[nH]ccc23)CC1 (stereo not shown) [Example 38, 1-(1-Cyclohexanecarbonyl-8-fluoro-1,2,3,4-tetrahydroquinoline-2-ylmethyl)-4-(4-indolyl)piperazine] | 0.0173 µM
Cc1cccc(N2CCN(CC3CCc4ccccc4N3C(=O)C3CCCCC3)CC2)c1 (stereo not shown) [Example 72A30, 1-(1-Cyclohexanecarbonyl-1,2,3,4-tetrahydroquinolin-2-ylmethyl)-4-(3-methylphenyl)piperazine] | 0.0109 µM
O=C(c1ccncc1)N1c2ccccc2CCC1CN1CCN(c2cccc3[nH]ccc23)CC1 (stereo not shown) [Example 68A34, 1-(4-Indolyl)-4-[1-(4-pyridylcarbonyl)-1,2,3,4-tetrahydroquinoline-2-ylmethyl]piperazine] | 0.0249 µM
CC(C)(C)OC(=O)NCC(=O)N1c2ccccc2CCC1CN1CCN(c2cccc3[nH]ccc23)CC1 (stereo not shown) [Example 71A, 1-[1-(2-tert-Butoxycarbonylamino)acetyl-1,2,3,4-tetrahydroquinoline-2-ylmethyl]-4-(4-indolyl)piperazine] | 0.0357 µM
CC(=O)N1CCC(C(=O)N2c3ccccc3CCC2CN2CCN(c3cccc4[nH]ccc34)CC2)CC1 (stereo not shown) [Example 68A38, 1-[1-(1-Acetylpiperidine-4-carbonyl)-1,2,3,4-tetrahydroquinoline-2-ylmethyl]-4-(4-indolyl)piperazine] | 0.0244 µM
O=C(Cc1ccc(C(F)(F)F)cc1)N1c2ccccc2CCC1CN1CCN(c2cccc3[nH]ccc23)CC1 (stereo not shown) [Example 68A31] | 0.0418 µM
C[C@@H](NC(=O)N1c2ccccc2CCC1CN1CCN(c2cccc3[nH]ccc23)CC1)c1ccccc1 (single isomer, unassigned) [Example 69A5] | 0.0157 µM
COc1cc(F)ccc1N1CCN(CC2CCc3ccccc3N2C(=O)Cc2ccsc2)CC1 (stereo not shown) [Example 74A9, 1-(4-Fluoro-2-methoxyphenyl)-4-[1-(3-thienylacetyl)-1,2,3,4-tetrahydroquinolin-2-ylmethyl]piperazine] | 0.0383 µM
COc1ccc(C(=O)N2c3ccccc3CCC2CN2CCN(c3nccc4ccccc34)CC2)cc1 (stereo not shown) [Example 75A5, 1-(1-Isoquinolinyl)-4-[1-(4-methoxybenzoyl)-1,2,3,4-tetrahydroquinolin-2-ylmethyl]piperazine] | 0.0026 µM
COc1ccc(CC(=O)N2c3ccccc3CCC2CN2CCN(c3cccc4[nH]ccc34)CC2)cc1 (stereo not shown) [Example 68A43, 1-(4-Indolyl)-4-[1-[2-(4-methoxyphenylacetyl)]-1,2,3,4-tetrahydroquinoline-2-ylmethyl]piperazine] | 0.0427 µM
O=C(Cc1ccccc1Cl)N1c2ccccc2CCC1CN1CCN(c2cccc3[nH]ccc23)CC1 (stereo not shown) [Example 68A45, 1-[1-[2-(2-Chlorophenylacetyl)]-1,2,3,4-tetrahydroquinoline-2-ylmethyl]-4-(4-indolyl)piperazine] | 0.0086 µM
N#Cc1ccccc1N1CCN(CC2CCc3ccccc3N2C(=O)C2CCCCC2)CC1 (stereo not shown) [Example 72A13, 1-(2-Cyanophenyl)-4-(1-cyclohexanecarbonyl-1,2,3,4-tetrahydroquinolin-2-ylmethyl)piperazine] | 0.0078 µM
O=C(CCOc1ccccc1)N1c2ccccc2CCC1CN1CCN(c2cccc3[nH]ccc23)CC1 (stereo not shown) [Example 68A61, 1-(4-Indolyl)-4-[1-(3-phenoxypropionyl)-1,2,3,4-tetrahydroquinoline-2-ylmethyl]piperazine] | 0.0197 µM
O=C(COCc1ccccc1)N1c2ccccc2CCC1CN1CCN(c2cccc3[nH]ccc23)CC1 (stereo not shown) [Example 68A44, 1-(4-Indolyl)-4-[1-(2-phenylmethoxyacetyl)-1,2,3,4-tetrahydroquinoline-2-ylmethyl]piperazine] | 0.0207 µM
O=C(C1CCCCC1)N1c2ccccc2CCC1CN1CCN(c2ccnc3ccccc23)CC1 (stereo not shown) [Example 72A94, 1-(1-Cyclohexanecarbonyl-1,2,3,4-tetrahydroquinolin-2-ylmethyl)-4-(4-quinolyl)piperazine] | 0.01 µM
COc1cc(F)ccc1N1CCN(CC2CCc3ccccc3N2C(=O)Cc2cccs2)CC1 (stereo not shown) [Example 74A8, 1-(4-Fluoro-2-methoxyphenyl)-4-[1-(2-thienylacetyl)-1,2,3,4-tetrahydroquinolin-2-ylmethyl]piperazine] | 0.0059 µM
COc1cc(F)ccc1N1CCN(CC2CCc3ccc(Cl)cc3N2C(=O)C2CCCCC2)CC1 (stereo not shown) [Example 57, 1-(7-Chloro-1-cyclohexanecarbonyl-1,2,3,4-tetrahydroquinoline-2-ylmethyl)-4-(4-fluoro-2-methoxyphenyl)piperazine] | 0.0023 µM
1-(4-Chloro-2-1-propoxyphenyl)-4-(1-cyclohexanecarbonyl-1,2,3,4-tetrahydroquinoline-2-ylmethyl)piperazine [Example 60A] | 0.0101 µM
O=C(CCOCc1ccccc1)N1c2ccccc2CCC1CN1CCN(c2ccccc2OCC(F)(F)F)CC1 (stereo not shown) [Example 8, 1-[1-(3-Benzyloxypropionyl)-1,2,3,4-tetrahydroquinoline-2-ylmethyl]-4-[2-(2,2,2-trifluoroethoxy)phenyl]piperazine] | 0.0103 µM
